The source of these data is ChEMBL document CHEMBL3352777, “Substituted thieno[2,3-b]thiophenes and related congeners: Synthesis, β-glucuronidase inhibition activity, crystal structure, and POM analyses” (Bioorg Med Chem, 2014).

Broadly, the inhibition is how much of the control response was suppressed. Read a high inhibition as a response far below the control. What is called IC50 is the concentration that inhibits the measured activity by half. Low values mean higher potency, high ones lower potency.

Assay [1] addresses T1, Beta-glucuronidase (Homo sapiens) (UniProt P08236).
T1 sequence (whole entry): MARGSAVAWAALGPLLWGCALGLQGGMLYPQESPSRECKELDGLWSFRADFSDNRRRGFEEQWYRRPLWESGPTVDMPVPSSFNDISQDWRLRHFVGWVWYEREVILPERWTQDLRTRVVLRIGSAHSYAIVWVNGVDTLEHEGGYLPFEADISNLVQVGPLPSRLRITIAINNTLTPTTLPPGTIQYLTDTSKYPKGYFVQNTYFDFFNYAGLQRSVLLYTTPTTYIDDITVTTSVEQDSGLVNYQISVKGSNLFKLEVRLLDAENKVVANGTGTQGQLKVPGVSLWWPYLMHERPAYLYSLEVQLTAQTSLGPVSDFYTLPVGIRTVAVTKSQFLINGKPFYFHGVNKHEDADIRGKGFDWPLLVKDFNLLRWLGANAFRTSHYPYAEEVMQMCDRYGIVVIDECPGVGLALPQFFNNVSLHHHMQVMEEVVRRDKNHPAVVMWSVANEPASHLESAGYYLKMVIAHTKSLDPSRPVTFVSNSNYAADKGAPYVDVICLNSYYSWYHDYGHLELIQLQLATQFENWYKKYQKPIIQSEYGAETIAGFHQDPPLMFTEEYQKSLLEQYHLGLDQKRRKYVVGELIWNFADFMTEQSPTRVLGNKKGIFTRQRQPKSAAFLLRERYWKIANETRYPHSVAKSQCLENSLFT
The assay is described as follows: Inhibition of beta-glucuronidase (unknown origin) at 500 uM using p-nitrophenyl-beta-D-glucuronide substrate incubated for 30 mins by spectrophotometry.

The species entered for a further assay is Homo sapiens. The assay can be described thus: Inhibition of alpha-chymotrypsin (unknown origin) using N-succinyl-L-phenylalanine-p-nitroanilide substrate at 500 uM.
The target of assay [2] is Carbonic anhydrase (Homo sapiens) (UniProt P00918+P43166+P00915+P07451+P23280+O43570+Q9ULX7+Q16790+P22748+Q8N1Q1+Q9Y2D0+P35218). The assay is described as follows: Inhibition of carbonic anhydrase (unknown origin) at 500 uM. It counts as protein assay.
The nature of assay [3]: Inhibition of buttermilk xanthine oxidase (unknown origin) at 500 uM incubated for 10 mins by spectrophotometry.
The nature of a further assay: cells. The note with it: Homo sapiens, PC-3, 48 h.
The next assay addresses Carbonic anhydrase. The assay is described as follows: Inhibition of carbonic anhydrase (unknown origin). It counts as protein assay, Homo sapiens.
Assay [4] in a line: Inhibition of alpha-chymotrypsin (unknown origin) using N-succinyl-L-phenylalanine-p-nitroanilide substrate. The arrangement: species or system Homo sapiens.
The nature of assay [5]: Inhibition of buttermilk xanthine oxidase (unknown origin) incubated for 10 mins by spectrophotometry.

Description for cells: Cytotoxic activity against human PC3 cells after 48 hrs by MTT assay

In the case of `Cc1c(C(=O)/C=C/N(C)C)sc2sc(C(=O)/C=C/N(C)C)c(-c3ccccc3)c12`, the inhibition (in assay [1]; in the assay listed under Homo sapiens; in assay [2]; in assay [3]) was below 50% throughout. The molecule also gave an IC50 in “cells” above 30 µM.

For the molecule `Cc1c(-c2ccc(C#N)c(=O)[nH]2)sc2sc(-c3ccc(C#N)c(=O)[nH]3)c(-c3ccccc3)c12`, the inhibition in assay [3] was below 50%. The IC50 against Carbonic anhydrase amounted to 270.13 µM.

In the case of `CC(=C(C#N)C#N)c1sc2sc(C(C)=C(C#N)C#N)c(-c3ccccc3)c2c1C`, the inhibition (in the assay filed under Homo sapiens; in assay [3]) was below 50% throughout. The figures for the IC50 in the assay “cells” and on Carbonic anhydrase were above 30 µM and 441.72 µM, respectively.

For the molecule `Cc1c(-c2ccc(C(=O)O)c(=O)[nH]2)sc2sc(-c3ccc(C(=O)O)c(=O)[nH]3)c(-c3ccccc3)c12`, the inhibition (in the assay filed under Homo sapiens; in assay [2]; in assay [3]) was below 50% throughout. The IC50 in the assay “cells” is above 30 µM.

For the molecule `CCOC(=O)c1nn(-c2ccccc2)cc1C(=O)c1sc2sc(C(=O)c3cn(-c4ccccc4)nc3C(=O)OCC)c(-c3ccccc3)c2c1C`, the inhibition (in assay [1]; in the assay listed under Homo sapiens) was below 50% in each case. This molecule also yielded a half-maximal inhibitory concentration (IC50) in “cells” above 30 µM.

In the case of `Cc1c(C(/C=C/N(C)C)=C(C#N)C#N)sc2sc(C(/C=C/N(C)C)=C(C#N)C#N)c(-c3ccccc3)c12`, the IC50 is above 30 µM in the assay “cells” and 202 µM in assay [4].

On to `Cc1c(/C(=C/C=C(\C#N)C(N)=O)N(C)C)sc2sc(/C(=C/C=C(\C#N)C(N)=O)N(C)C)c(-c3ccccc3)c12`, for which the inhibition in assay [2] was below 50%. Also, the values for the IC50 (in “cells”; in assay [5]) were above 30 µM and 43.1 µM, respectively.

As for `CC(C)C[C@H](NC(=O)[C@@H](NC(=O)N[C@@H](Cc1ccccc1)C(=O)O)C1CCNC(=N)N1)C(=O)N[C@H](C=O)Cc1ccccc1` (stereo partly drawn) [CHYMOSTATIN], half-maximal inhibition in assay [4] (IC50) was put at 5.7 µM.

With `CCOc1nc(-c2sc3sc(-c4ccc(C#N)c(OCC)n4)c(-c4ccccc4)c3c2C)ccc1C#N`, the inhibition (in the assay filed under Homo sapiens; in assay [2]) was below 50% in each case. Moreover, the IC50 is above 30 µM in “cells” and 14.4 µM in assay [5].

For `COc1cccc2c1C(=O)c1c(O)c3c(c(O)c1C2=O)C[C@@](O)(C(=O)CO)C[C@@H]3O[C@H]1C[C@H](N)[C@H](O)[C@H](C)O1` [DOXORUBICIN], in “cells”, the IC50 came to 0.912 µM.

In assay [2], `CC(=O)c1ccc(-c2sc3sc(-c4ccc(C(C)=O)c(C)n4)c(-c4ccccc4)c3c2C)nc1C` displayed an inhibition below 50%. The molecule also returned an IC50 in “cells” above 30 µM.

`CCOC(/C=C/C(=O)c1sc2sc(C(=O)/C=C/C(OCC)(OCC)OCC)c(-c3ccccc3)c2c1C)(OCC)OCC`: the inhibition (in the assay filed under Homo sapiens; in assay [2]) was below 50% throughout. This molecule registered a concentration for half-maximal inhibition (IC50) in “cells” above 30 µM.

`Oc1ncnc2[nH]ncc12` [ALLOPURINOL] returned an IC50 in assay [5] of 2 µM.

In the case of `Cc1c(C(=O)c2cc(C#N)c(=N)n(-c3ccccc3)n2)sc2sc(C(=O)c3cc(C#N)c(=N)n(-c4ccccc4)n3)c(-c3ccccc3)c12`, the IC50 in the assay “cells” turned out to be 2.61 µM.

On to `Cc1c(C(=O)/C(C=O)=N/Nc2ccccc2)sc2sc(C(=O)/C(C=O)=N/Nc3ccccc3)c(-c3ccccc3)c12`, for which the inhibition (in the assay filed under Homo sapiens; in assay [2]; in assay [3]) was below 50% in each case. Moreover, in “cells”, the IC50 was found to be 13.8 µM.

As for `Cc1c(C(=O)/C=C/NO)sc2sc(C(=O)/C=C/NO)c(-c3ccccc3)c12`, the IC50 in the assay “cells” is above 30 µM.

In the case of `Cc1c(C(=O)c2cc(C(=O)O)c(=O)[nH]n2)sc2sc(C(=O)c3cc(C(=O)O)c(=O)[nH]n3)c(-c3ccccc3)c12`, the inhibition (in the assay listed under Homo sapiens; in assay [2]) was below 50% throughout. Also, the half-maximal inhibitory concentration (IC50) in the assay “cells” is above 30 µM; in assay [5], 121 µM.

With `Cc1c(C(=O)/C=C/N(C)C)sc2sc(C(=O)c3ccc(-c4sc5sc(C(=O)/C=C/N(C)C)c(-c6ccccc6)c5c4C)nc3)c(-c3ccccc3)c12`, the inhibition (in the assay filed under Homo sapiens; in assay [2]) was below 50% throughout. For the same molecule, the IC50 in the assay “cells” is above 30 µM.
